Read-outs that look alike come from different tables or passages of the source.
Experiments:
NB-4 = experiment: Cell proliferation of cancerous cell lines; format: cell-based; details: Homo sapiens; NB-4 cell line; read-out: Antineoplastic effect on cell proliferation, IC50
KG1 = experiment: Cell proliferation of cancerous cell lines; format: cell-based; details: Homo sapiens, KG-1; KG1 cell line; read-out: Antineoplastic effect on cell proliferation, IC50
MUTZ-8 = experiment: Cell proliferation of cancerous cell lines; format: cell-based; details: MUTZ-8 cell line; read-out: Antineoplastic effect on cell proliferation, IC50
MonoMac = experiment: Cell proliferation of cancerous cell lines; format: cell-based; details: MonoMac cell line; read-out: Antineoplastic effect on cell proliferation, IC50
EOL1 = experiment: Cell proliferation of cancerous cell lines; format: cell-based; details: Homo sapiens; EOL1 cell line; read-out: Antineoplastic effect on cell proliferation, IC50
HL-60 = experiment: Cell proliferation of cancerous cell lines; format: cell-based; details: Homo sapiens; HL-60 cell line; read-out: Antineoplastic effect on cell proliferation, IC50
KBM7 = experiment: Cell proliferation of cancerous cell lines; format: cell-based; details: KBM-7; KBM7 cell line; read-out: Antineoplastic effect on cell proliferation, IC50
AML5 = experiment: Cell proliferation of cancerous cell lines; format: cell-based; details: AML5 cell line; read-out: Antineoplastic effect on cell proliferation, IC50
KU-812 = experiment: Cell proliferation of cancerous cell lines; format: cell-based; details: Homo sapiens, KU812; KU-812 cell line; read-out: Antineoplastic effect on cell proliferation, IC50
CB = experiment: Cell proliferation, CB sample of Table 2; details: read-out: Antineoplastic effect on cell proliferation, IC50
AML4 = experiment: Cell proliferation of cancerous cell lines; format: cell-based; details: AML4 cell line; read-out: Antineoplastic effect on cell proliferation, IC50
MOLM-13 = experiment: Cell proliferation of cancerous cell lines; format: cell-based; details: Homo sapiens; MOLM-13 cell line; read-out: Antineoplastic effect on cell proliferation, IC50
MUTZ-2 = experiment: Cell proliferation of cancerous cell lines; format: cell-based; details: MUTZ-2 cell line; read-out: Antineoplastic effect on cell proliferation, IC50
in vivo = details: mouse
Protocol: PK assays were performed in mice (n=3). […] The following pharmacokinetic parameters were calculated.
The compounds were orally administered at 20 mg/kg and plasma samples were collected at 15, 30 minutes and 1, 2, 4, 6 and 8 hours after administration. The following pharmacokinetic parameters were calculated.

SKNO = experiment: Cell proliferation of cancerous cell lines; format: cell-based; details: SKNO cell line; read-out: Antineoplastic effect on cell proliferation, IC50
LY-1 = experiment: Cell proliferation of cancerous cell lines; format: cell-based; details: Ly1; LY-1 cell line; read-out: Antineoplastic effect on cell proliferation, IC50
KG1a = experiment: Cell proliferation of cancerous cell lines; format: cell-based; details: Homo sapiens, KG-1a; KG1a cell line; read-out: Antineoplastic effect on cell proliferation, IC50
UT-7 = experiment: Cell proliferation of cancerous cell lines; format: cell-based; details: Homo sapiens, UT7; UT-7 cell line; read-out: Antineoplastic effect on cell proliferation, IC50
AML3 = experiment: Cell proliferation of cancerous cell lines; format: cell-based; details: AML3 cell line; read-out: Antineoplastic effect on cell proliferation, IC50
AML samples = experiment: Cell proliferation of cancerous samples from patients
Z-138 = experiment: Cell proliferation of cancerous cell lines; format: cell-based; details: Homo sapiens; Z-138 cell line; read-out: Antineoplastic effect on cell proliferation, IC50

Cn1nnc(-c2ccc3c(c2)[nH]c2ncnc(NCCCN4CCCCC4)c23)n1 [UM681]
IC50 (NB-4): 1 to 10 µM
IC50 (KG1): 1 to 10 µM
IC50 (MUTZ-8): > 10 µM
IC50 (MonoMac): 1 to 10 µM
IC50 (EOL1): 250 to 1000 nM
IC50 (HL-60): 1 to 10 µM
IC50 (KBM7): > 10 µM
IC50 (AML5): 1 to 10 µM
IC50 (KU-812): 1 to 10 µM
IC50 (CB): 1 to 10 µM
IC50 (AML4): 250 to 1000 nM
IC50 (MOLM-13): 250 to 1000 nM
IC50 (MUTZ-2): 1 to 10 µM
bioavailability (in vivo; female, po, 20 mg/kg): 39%
bioavailability (in vivo; male, po, 20 mg/kg): 31%
Vd (in vivo; iv, 1 mg/kg): 14.3 L/kg
clearance (in vivo; iv, 1 mg/kg): 109 mL/min/kg
half-life (in vivo; iv, 1 mg/kg): 114 min
AUC (in vivo; po, 20 mg/kg): 2.45 µM·h
Cmax (in vivo; po, 20 mg/kg): 200 nM
Tmax (in vivo; po, 20 mg/kg): 4 h
IC50 (SKNO): 1 to 10 µM
IC50 (LY-1): > 10 µM
IC50 (KG1a): 1 to 10 µM
IC50 (UT-7): > 10 µM
IC50 (AML3): 1 to 10 µM
IC50 (AML samples; read-out: Antineoplastic effect on cell proliferation, IC50, AML sample 04H063): 1 to 10 µM
IC50 (AML samples; read-out: Antineoplastic effect on cell proliferation, IC50, AML sample 05H094): 1 to 10 µM
IC50 (AML samples; read-out: Antineoplastic effect on cell proliferation, IC50, AML sample 05H149): 1 to 10 µM
IC50 (AML samples; read-out: Antineoplastic effect on cell proliferation, IC50, AML sample 06H045): 1 to 10 µM
IC50 (AML samples; read-out: Antineoplastic effect on cell proliferation, IC50, AML sample 06H088): > 10 µM
IC50 (AML samples; read-out: Antineoplastic effect on cell proliferation, IC50, AML sample 06H117): 1 to 10 µM
IC50 (AML samples; read-out: Antineoplastic effect on cell proliferation, IC50, AML sample 07H005): 1 to 10 µM
IC50 (AML samples; read-out: Antineoplastic effect on cell proliferation, IC50, AML sample 07H038): 1 to 10 µM
IC50 (AML samples; read-out: Antineoplastic effect on cell proliferation, IC50, AML sample 07H045): > 10 µM
IC50 (AML samples; read-out: Antineoplastic effect on cell proliferation, IC50, AML sample 07H125): 1 to 10 µM
IC50 (AML samples; read-out: Antineoplastic effect on cell proliferation, IC50, AML sample 07H135): 1 to 10 µM
IC50 (AML samples; read-out: Antineoplastic effect on cell proliferation, IC50, AML sample 07H151): > 10 µM
IC50 (AML samples; read-out: Antineoplastic effect on cell proliferation, IC50, AML sample 08H018): > 10 µM
IC50 (AML samples; read-out: Antineoplastic effect on cell proliferation, IC50, AML sample 09H010): 1 to 10 µM
IC50 (AML samples; read-out: Antineoplastic effect on cell proliferation, IC50, AML sample 09H046): > 10 µM
IC50 (AML samples; read-out: Antineoplastic effect on cell proliferation, IC50, AML sample 09H079): 1 to 10 µM
IC50 (AML samples; read-out: Antineoplastic effect on cell proliferation, IC50, AML sample 09H115): 1 to 10 µM
IC50 (AML samples; read-out: Antineoplastic effect on cell proliferation, IC50, AML sample 10H022): 0.25 to 1 µM
IC50 (AML samples; read-out: Antineoplastic effect on cell proliferation, IC50, AML sample 10H127): 1 to 10 µM
IC50 (AML samples; read-out: Antineoplastic effect on cell proliferation, IC50, AML sample 11H002): 1 to 10 µM
IC50 (AML samples; read-out: Antineoplastic effect on cell proliferation, IC50, AML sample 11H046): 0.25 to 1 µM
IC50 (AML samples; read-out: Antineoplastic effect on cell proliferation, IC50, AML sample 11H103): 1 to 10 µM
IC50 (AML samples; read-out: Antineoplastic effect on cell proliferation, IC50, AML sample 12H045): 1 to 10 µM
IC50 (AML samples; read-out: Antineoplastic effect on cell proliferation, IC50, AML sample 12H058): 1 to 10 µM
IC50 (AML samples; read-out: Antineoplastic effect on cell proliferation, IC50, AML sample 12H096): > 10 µM
IC50 (AML samples; read-out: Antineoplastic effect on cell proliferation, IC50, AML sample 12H106): > 10 µM
IC50 (AML samples; read-out: Antineoplastic effect on cell proliferation, IC50, AML sample 12H151): 1 to 10 µM
IC50 (AML samples; read-out: Antineoplastic effect on cell proliferation, IC50, AML sample 13H100): 1 to 10 µM
IC50 (AML samples; read-out: Antineoplastic effect on cell proliferation, IC50, AML sample 13H150): 1 to 10 µM
IC50 (Z-138): 1 to 10 µM

Reference: patent US20230073512A1, “MODULATORS OF CULLIN 3 ADAPTOR KBTBD4 AS ANTI-CANCER COMPOUNDS” (UNIVERSITE DE MONTREAL, priority 2019, published 2023)
